In article PMC10794144, “A novel antibiotic class targeting the lipopolysaccharide transporter” (Nature, 2024):
Where two headings read alike, the source gives them in different places.

Assays:
Matrix metalloprotease-9 = target: T1, Matrix metalloprotease-9 (Homo sapiens, UniProt P14780); assay: Off-target screening (CEREP); format: biochemical; conditions: read-out: percent inhibition
T1 construct: purchased Eurofins CEREP SA
Procedure: (§1) Supplementary Table 1 │ Off-target activity screening f or MCP compou nds […]
(§2) The assays given in the table above were conducted at Eurofins CEREP S A (Celle-Lévescault, France) and were run as single point measurements in duplicates in the presence of 10 µ M of the test compound and reported as percent inhibition of the radioligand signal or control enzymatic activity. n.d., not

[1] = target: T2, Angiotensin converting enzyme (Homo sapiens, UniProt P12821); assay: Off-target screening (CEREP); format: biochemical; conditions: read-out: percent inhibition
T2 construct: purchased Eurofins CEREP SA
Procedure: as §1, §2

Monoamine oxidase-A = target: T3, Monoamine oxidase-A (Homo sapiens, UniProt P21397); assay: Off-target screening (CEREP); format: biochemical; conditions: read-out: percent inhibition
T3 construct: purchased Eurofins CEREP SA
T3 sequence (P21397 1-527): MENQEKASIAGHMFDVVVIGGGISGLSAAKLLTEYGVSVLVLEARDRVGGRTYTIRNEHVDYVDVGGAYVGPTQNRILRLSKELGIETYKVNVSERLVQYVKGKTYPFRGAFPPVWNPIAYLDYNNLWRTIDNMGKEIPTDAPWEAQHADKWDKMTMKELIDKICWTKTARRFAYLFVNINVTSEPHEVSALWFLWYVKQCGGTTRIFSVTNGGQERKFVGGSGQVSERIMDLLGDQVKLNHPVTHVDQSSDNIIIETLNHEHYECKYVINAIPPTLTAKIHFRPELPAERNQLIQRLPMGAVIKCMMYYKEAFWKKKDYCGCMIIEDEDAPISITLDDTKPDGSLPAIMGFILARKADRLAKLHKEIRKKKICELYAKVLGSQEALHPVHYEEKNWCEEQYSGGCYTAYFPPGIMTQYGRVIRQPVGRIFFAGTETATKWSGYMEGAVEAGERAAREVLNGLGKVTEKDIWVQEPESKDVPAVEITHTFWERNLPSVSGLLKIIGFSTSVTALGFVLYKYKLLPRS
Procedure: as §1, §2

ZAP70 kinase = target: T4, ZAP70 kinase (Homo sapiens, UniProt P43403); assay: Off-target screening (CEREP); format: biochemical; conditions: read-out: percent inhibition
T4 construct: purchased Eurofins CEREP SA
T4 sequence (P43403 1-619): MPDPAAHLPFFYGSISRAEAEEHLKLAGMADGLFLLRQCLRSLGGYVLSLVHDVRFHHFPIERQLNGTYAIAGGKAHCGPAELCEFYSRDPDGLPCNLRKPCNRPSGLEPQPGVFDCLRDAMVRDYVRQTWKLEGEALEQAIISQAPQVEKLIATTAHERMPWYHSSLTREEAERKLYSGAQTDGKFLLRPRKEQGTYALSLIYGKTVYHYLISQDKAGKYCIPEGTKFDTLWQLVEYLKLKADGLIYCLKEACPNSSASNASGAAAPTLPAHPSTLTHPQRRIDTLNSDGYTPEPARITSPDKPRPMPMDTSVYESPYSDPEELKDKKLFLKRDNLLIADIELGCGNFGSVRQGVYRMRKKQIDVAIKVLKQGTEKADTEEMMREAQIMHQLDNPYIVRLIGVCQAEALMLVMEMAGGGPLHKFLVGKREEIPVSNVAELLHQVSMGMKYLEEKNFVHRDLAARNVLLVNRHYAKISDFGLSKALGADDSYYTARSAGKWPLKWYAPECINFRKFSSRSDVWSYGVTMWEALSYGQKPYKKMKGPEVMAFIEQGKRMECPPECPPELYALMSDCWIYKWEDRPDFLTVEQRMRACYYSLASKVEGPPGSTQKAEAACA
Procedure: as §1, §2

Phosphodiesterase 3B = target: T5, Phosphodiesterase 3B (Homo sapiens, UniProt Q13370); assay: Off-target screening (CEREP); format: biochemical; conditions: read-out: percent inhibition
T5 construct: purchased Eurofins CEREP SA
Procedure: as §1, §2

Acetylcholinesterase = target: T6, Acetylcholinesterase (Homo sapiens, UniProt P22303); assay: Off-target screening (CEREP); format: biochemical; conditions: read-out: percent inhibition
T6 construct: purchased Eurofins CEREP SA
Procedure: as §1, §2

Cyclooxygenase 2 = target: T7, Cyclooxygenase 2 (Homo sapiens, UniProt P35354); assay: Off-target screening (CEREP); format: biochemical; conditions: read-out: percent inhibition
T7 construct: purchased Eurofins CEREP SA
T7 sequence (P35354 18-604): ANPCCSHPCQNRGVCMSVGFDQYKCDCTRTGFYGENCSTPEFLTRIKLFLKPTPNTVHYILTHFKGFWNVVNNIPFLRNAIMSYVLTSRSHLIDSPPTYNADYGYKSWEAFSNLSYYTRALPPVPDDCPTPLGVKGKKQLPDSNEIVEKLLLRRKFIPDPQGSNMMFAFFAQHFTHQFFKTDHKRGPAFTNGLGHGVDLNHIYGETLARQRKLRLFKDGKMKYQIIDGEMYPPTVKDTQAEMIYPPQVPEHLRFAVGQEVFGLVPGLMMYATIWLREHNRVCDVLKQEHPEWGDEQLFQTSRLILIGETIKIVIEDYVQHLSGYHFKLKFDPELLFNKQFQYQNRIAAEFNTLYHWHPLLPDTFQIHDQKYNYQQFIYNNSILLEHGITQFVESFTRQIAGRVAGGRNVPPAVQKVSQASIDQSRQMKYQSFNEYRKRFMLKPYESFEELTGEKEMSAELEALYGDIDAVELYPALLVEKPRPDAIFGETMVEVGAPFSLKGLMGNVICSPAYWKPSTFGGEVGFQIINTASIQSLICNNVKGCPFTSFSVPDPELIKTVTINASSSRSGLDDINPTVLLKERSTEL
Procedure: as §1, §2

[2] = Human whole blood haemolysis assay; conditions: human heparinated blood, 10 min 37 °C
Procedure: For the in vitro haemolysis test, blood was provided by Roche medical services through an anonymous blood donation for research program, approved by the Ethics Committee Northwestern Switzerland and Central Switzerland (EKNZ) and collected with informed consent. Blood was collected by venipuncture in ethylenediaminetetraacetic acid (EDTA) and Li-heparin-coated tubes. Plasma was prepared from anticoagulated blood by centrifugation (2,500g; 10 min; at room temperature) and the haematocrit was measured to ensure that it was within normal reference values. Each formulation of compound in saline was added at a concentration of 8 mg ml^−1 into test tubes containing exactly 0.5 ml of heparinated blood to give a final assay volume of 1 ml and a concentration of 4 mg ml^−1 or less (following further dilutions). After incubation in a water bath for 10 min at 37 °C, the tubes were centrifuged (10 min, 1,811g at room temperature) and 100 μl of the supernatant was subsequently transferred into test tubes containing 5 ml Drabkins solution (RANDOX Laboratories) and 1 ml phosphate buffer. Haemoglobin was photometrically determined at 540 nm according to the RANDOX test-kit instructions. The results were expressed as percentage haemolysis extrapolated from an internal standard curve with 0%, 50% and 100% haemolysed blood samples.

Phosphodiesterase 4D2 = target: T8, Phosphodiesterase 4D2 (Homo sapiens, UniProt Q08499); assay: Off-target screening (CEREP); format: biochemical; conditions: read-out: percent inhibition
T8 construct: purchased Eurofins CEREP SA
Procedure: as §1, §2

Abl kinase = target: T9, Abl kinase (Homo sapiens, UniProt P00519); assay: Off-target screening (CEREP); format: biochemical; conditions: read-out: percent inhibition
T9 construct: purchased Eurofins CEREP SA
Procedure: as §1, §2

T6 sequence (P22303 32-614): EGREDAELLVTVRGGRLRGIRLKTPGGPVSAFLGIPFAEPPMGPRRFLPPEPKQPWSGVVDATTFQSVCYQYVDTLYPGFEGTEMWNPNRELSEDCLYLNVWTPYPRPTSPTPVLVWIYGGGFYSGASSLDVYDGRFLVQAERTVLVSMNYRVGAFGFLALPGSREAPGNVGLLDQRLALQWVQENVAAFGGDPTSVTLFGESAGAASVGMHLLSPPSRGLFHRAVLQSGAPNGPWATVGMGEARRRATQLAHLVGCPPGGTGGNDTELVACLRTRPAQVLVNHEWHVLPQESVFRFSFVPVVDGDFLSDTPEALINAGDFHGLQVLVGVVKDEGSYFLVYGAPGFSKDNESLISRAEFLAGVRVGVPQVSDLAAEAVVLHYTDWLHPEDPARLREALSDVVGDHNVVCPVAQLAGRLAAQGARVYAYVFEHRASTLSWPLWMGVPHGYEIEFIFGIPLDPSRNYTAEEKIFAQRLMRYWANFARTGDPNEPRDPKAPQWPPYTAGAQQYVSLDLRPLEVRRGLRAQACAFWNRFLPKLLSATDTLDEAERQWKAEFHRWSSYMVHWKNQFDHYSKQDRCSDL
T1 sequence (P14780 94-707): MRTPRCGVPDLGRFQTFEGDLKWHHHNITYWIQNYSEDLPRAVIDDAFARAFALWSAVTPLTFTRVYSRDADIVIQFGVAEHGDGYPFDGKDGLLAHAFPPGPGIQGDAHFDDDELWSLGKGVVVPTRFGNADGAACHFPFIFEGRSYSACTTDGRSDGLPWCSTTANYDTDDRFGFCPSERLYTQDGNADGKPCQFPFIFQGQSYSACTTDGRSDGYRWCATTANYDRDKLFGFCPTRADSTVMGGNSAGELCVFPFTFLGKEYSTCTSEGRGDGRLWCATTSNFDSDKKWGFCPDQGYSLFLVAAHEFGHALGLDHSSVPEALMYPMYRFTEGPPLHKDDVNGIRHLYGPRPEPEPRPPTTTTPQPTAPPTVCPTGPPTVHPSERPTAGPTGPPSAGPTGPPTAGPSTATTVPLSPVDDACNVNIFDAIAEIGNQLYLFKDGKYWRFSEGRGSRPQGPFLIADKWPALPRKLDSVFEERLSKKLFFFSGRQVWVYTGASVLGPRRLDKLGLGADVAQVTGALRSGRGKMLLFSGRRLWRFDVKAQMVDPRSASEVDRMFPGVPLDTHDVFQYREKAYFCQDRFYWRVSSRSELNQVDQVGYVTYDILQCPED
T8 sequence (Q08499 303-809 limits assumed): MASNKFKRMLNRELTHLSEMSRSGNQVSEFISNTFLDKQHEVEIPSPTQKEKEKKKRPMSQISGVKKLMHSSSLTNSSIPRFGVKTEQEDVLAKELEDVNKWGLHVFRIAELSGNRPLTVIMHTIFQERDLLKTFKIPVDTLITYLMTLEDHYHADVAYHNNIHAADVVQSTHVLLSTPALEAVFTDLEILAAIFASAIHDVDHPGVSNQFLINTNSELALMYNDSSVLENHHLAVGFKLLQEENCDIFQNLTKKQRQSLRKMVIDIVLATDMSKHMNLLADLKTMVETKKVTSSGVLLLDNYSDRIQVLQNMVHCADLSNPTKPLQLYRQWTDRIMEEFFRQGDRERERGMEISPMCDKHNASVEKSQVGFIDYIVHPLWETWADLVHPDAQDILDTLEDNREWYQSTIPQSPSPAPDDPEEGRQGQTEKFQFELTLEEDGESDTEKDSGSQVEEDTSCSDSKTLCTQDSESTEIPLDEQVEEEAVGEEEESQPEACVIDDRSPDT
T2 sequence (P12821 30-1306): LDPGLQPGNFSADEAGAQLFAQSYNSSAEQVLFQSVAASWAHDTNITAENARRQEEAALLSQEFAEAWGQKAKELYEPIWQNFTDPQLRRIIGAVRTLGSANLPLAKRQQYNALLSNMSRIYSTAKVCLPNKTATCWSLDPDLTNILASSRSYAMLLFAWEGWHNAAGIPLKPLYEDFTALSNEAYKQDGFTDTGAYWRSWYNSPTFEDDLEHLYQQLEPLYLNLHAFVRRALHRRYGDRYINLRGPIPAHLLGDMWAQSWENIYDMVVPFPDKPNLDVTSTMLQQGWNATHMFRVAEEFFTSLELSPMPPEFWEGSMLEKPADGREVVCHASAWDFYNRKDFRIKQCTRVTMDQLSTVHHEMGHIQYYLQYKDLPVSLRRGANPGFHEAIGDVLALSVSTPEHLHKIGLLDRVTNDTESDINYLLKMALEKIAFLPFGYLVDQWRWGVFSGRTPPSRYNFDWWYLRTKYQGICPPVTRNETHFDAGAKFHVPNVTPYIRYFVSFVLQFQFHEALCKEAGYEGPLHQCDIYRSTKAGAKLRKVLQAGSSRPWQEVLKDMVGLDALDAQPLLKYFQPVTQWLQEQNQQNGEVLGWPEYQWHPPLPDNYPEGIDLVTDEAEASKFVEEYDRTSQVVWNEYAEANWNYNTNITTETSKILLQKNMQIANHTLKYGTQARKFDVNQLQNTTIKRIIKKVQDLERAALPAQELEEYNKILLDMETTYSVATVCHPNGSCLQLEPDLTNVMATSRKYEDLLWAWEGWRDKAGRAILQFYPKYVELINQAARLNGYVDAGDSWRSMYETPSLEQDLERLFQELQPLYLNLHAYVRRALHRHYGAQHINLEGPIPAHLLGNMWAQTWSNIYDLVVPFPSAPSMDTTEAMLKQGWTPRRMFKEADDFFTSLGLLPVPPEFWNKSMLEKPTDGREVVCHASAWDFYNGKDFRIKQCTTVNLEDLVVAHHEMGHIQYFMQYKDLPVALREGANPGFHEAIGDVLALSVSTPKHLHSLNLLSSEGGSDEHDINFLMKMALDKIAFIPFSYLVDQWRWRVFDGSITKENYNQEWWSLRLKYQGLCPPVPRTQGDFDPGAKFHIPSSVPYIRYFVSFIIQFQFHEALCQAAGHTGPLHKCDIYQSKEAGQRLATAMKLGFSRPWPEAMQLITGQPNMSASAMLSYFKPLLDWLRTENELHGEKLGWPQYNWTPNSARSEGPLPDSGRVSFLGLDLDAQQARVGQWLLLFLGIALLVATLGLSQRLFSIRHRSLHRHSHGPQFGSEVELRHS
T9 sequence (P00519 whole entry): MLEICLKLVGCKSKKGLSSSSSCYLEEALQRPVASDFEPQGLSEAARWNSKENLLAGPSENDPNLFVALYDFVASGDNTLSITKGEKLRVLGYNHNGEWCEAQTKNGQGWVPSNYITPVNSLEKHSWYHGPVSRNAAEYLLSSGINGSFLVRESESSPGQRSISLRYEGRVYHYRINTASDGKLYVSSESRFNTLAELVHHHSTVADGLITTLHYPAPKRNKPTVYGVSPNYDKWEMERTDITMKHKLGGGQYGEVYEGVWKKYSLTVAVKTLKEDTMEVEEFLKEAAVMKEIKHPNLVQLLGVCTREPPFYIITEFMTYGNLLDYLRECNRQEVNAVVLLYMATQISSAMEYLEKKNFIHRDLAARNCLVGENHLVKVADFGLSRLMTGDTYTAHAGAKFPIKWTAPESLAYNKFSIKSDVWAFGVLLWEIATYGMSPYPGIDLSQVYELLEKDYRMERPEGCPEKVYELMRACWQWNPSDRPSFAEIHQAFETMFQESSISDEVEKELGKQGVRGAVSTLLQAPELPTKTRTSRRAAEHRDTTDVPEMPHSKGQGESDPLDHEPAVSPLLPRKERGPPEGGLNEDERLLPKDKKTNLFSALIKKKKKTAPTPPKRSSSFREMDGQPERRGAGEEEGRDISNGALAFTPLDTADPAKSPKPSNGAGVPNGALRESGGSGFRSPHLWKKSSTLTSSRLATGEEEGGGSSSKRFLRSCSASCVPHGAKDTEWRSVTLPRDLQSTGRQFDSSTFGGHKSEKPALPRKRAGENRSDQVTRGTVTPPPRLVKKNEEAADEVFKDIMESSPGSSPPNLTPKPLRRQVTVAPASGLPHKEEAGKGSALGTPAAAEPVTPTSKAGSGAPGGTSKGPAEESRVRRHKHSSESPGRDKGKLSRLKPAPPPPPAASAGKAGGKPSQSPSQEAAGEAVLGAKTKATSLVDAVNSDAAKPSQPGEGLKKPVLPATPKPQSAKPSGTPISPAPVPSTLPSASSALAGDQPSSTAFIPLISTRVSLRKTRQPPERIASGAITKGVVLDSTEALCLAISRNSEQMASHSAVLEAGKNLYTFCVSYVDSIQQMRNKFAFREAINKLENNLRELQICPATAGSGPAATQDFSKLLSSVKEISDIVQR

| SMILES | inhibition at 10 µM (Matrix metalloprotease-9; 10 µM, duplicates) [%] | inhibition at 10 µM ([1]; 10 µM, duplicates) [%] | inhibition at 10 µM (Monoamine oxidase-A; 10 µM, duplicates) [%] | inhibition at 10 µM (ZAP70 kinase; 10 µM, duplicates) [%] | inhibition at 10 µM (Phosphodiesterase 3B; 10 µM, duplicates) [%] | inhibition at 10 µM (Acetylcholinesterase; 10 µM, duplicates) [%] | inhibition at 10 µM (Cyclooxygenase 2; 10 µM, duplicates) [%] | Haemolysis [2] | inhibition at 10 µM (Matrix metalloprotease-9) [%] | inhibition at 10 µM [1] [%] | inhibition at 10 µM (Phosphodiesterase 4D2) [%] | inhibition at 10 µM (Monoamine oxidase-A) [%] | inhibition at 10 µM (ZAP70 kinase) [%] | inhibition at 10 µM (Phosphodiesterase 3B) [%] | inhibition at 10 µM (Abl kinase) [%] | inhibition at 10 µM (Acetylcholinesterase) [%] | inhibition at 10 µM (Cyclooxygenase 2) [%] | Haemolysis ([2]; 4 mg/mL, haemoglobin at 540 nm) [%] | inhibition at 10 µM (Phosphodiesterase 4D2; 10 µM, duplicates) [%] | inhibition at 10 µM (Abl kinase; 10 µM, duplicates) [%] |
| --- | --- | --- | --- | --- | --- | --- | --- | --- | --- | --- | --- | --- | --- | --- | --- | --- | --- | --- | --- | --- |
| CN1C(=O)[C@H](CCCN)NC(=O)[C@H](CCCN)NCc2ccccc2Sc2ccccc2CNC(=O)[C@@H]1Cc1c[nH]c2ccccc12 [RO7036668] | 6 | -7 | -2 | 2 | 17 | 9 | 4 |  |  |  |  |  |  |  |  |  |  |  |  |  |
| CN1C(=O)[C@H](CCCCN)NC(=O)[C@H](CCCN)NCc2cccnc2Sc2cccc(-c3ccc(C(=O)O)cc3)c2CNC(=O)[C@@H]1Cc1c[nH]c2ccccc12 [zosurabalpin] |  |  |  |  |  |  |  | None | 10 | -16 | 12 | 2 | 1 | 2 | -18 | 13 | -7 |  |  |  |
| CN1C(=O)[C@H](CCCCN)NC(=O)[C@H](CCCN)NCc2cccnc2Sc2c(Cl)ccc(Cl)c2CNC(=O)[C@@H]1Cc1c[nH]c2ccccc12 [RO7075573] |  |  |  |  |  |  |  |  | -31 | -7 | 0 | 3 | -47 | -3 | -85 | 4 | -46 | 37 |  |  |
| CN1C(=O)[C@H](CCCCN)NC(=O)[C@H](CCCN)NCc2cccnc2Sc2c(Cl)ccc(-c3ccc(C(=O)O)cc3)c2CNC(=O)[C@@H]1Cc1c[nH]c2ccccc12 [RO7202110] | 13 | 3 | 11 | -39 | 2 | 40 | 12 | None |  |  |  |  |  |  |  |  |  |  | -3 | -24 |
